Source: ChEMBL document CHEMBL3639062, “Triazolopyridazines as PAR1 inhibitors, production thereof, and use as medicaments” (2015)

Target: T1, Proteinase-activated receptor 1 (Homo sapiens, UniProt P25116)
T1 sequence (P25116 whole entry): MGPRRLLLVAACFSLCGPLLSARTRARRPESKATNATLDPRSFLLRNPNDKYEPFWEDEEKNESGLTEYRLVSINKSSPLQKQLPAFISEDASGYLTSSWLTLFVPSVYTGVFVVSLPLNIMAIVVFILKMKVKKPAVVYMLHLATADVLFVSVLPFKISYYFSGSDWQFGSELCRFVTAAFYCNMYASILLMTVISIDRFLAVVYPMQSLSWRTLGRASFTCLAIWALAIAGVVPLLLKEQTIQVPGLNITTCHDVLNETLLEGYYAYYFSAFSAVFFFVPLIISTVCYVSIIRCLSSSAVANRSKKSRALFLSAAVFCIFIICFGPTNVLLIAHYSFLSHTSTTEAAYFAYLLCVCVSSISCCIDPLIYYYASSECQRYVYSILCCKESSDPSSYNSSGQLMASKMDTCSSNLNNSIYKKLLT
Assay: Binding Assay: The synthesized substances were examined in a PAR1 binding test. This tested whether the substances can inhibit the binding of a radioactively labeled PAR1 agonist known from the literature at the PAR1 receptor (Ho-Sam Ahn, Mol Pharm, 51:350-356, 1997). The human PAR1 receptor was expressed transiently in High Five insect cells. From these cells, after 48 hours, a membrane preparation was produced by standard methods, aliquoted into 10 mM Tris-HCl; 0.3 mM EDTA; 1 mM EGTA; 250 mM sucrose pH 7.5, and stored at -80 C.The substances were preincubated with the membrane at room temperature for 15 minutes, then the radioligand (ALA-(para-F-Phe)-Arg-ChA-homoArg-(3,4-3H-Tyr)-NH2; approx. 40 Ci/mMol) was added. The end concentration of the radioligand in the test buffer (50 mM Tris-HCl; 10 mM MgCl2; 1 mM EGTA; 0.1% BSA; 2% DMSO) was 20 nM, that of the membrane 1 mg/ml. After an incubation time of 60 minutes, 25 uL of the mixture were transferred to a 96-well MultiScreenHTS FB.

IC50: 951 nM
SMILES: CCC(CC)Oc1nn2c(=N)n(CC(=O)c3cc(OC)cc(C(C)(C)C)c3)nc2cc1C
